Data published in patent US20060019932A1, “Treatment of rheumatoid arthritis by inhibition of pde4” (priority 2002, published 2006).
pIC50: −log10 of the molar value. Like-named read-outs stand apart in the source and are kept apart here. Values belong to the compound of their own block, whether it stands above or below them.

Key:
[1] = tested on: collagen-induced arthritis in DBA mice; test: Collagen-induced arthritis in DBA mice, cumulative score; assay type: in vivo; details: FIG. 1, score against days dosed, comparable to indomethacin
From the text: FIG. 1 is a graphical plot of the cumulative score in collagen-induced arthritis in DBA mice plotted against days dosed for vehicle, Roflumilast, Indomethacin, and Example 1.

[2] = biological target: T1, human recombinant phosphodiesterase IVa (met-248) (Homo sapiens, UniProt P27815); test: SPA based PDE activity assay; assay type: biochemical
T1 construct: human recombinant phosphodiesterase IVa (met-248); GST; made in house; host or cells: baculovirus/Sf-9
Description: Compounds which inhibit the hydrolysis of cAMP to AMP by the type-IV cAMP-specific phosphodiesterases were screened in a 96-well plate format as follows:
In a 96 well-plate at 30° C. the test compound was added (dissolved in 2 μL DMSO), 188 μL of substrate buffer containing [2,8-^3H] adenosine 3′,5′-cyclic phosphate (cAMP, 100 nM to 50 μM), 10 mM MgCl2, 1 mM EDTA, 50 mM Tris, pH 7.5. The reaction was initiated by the addition of human recombinant PDE4 (the amount was controlled so that ˜10% product was formed in 10 min.). The reaction was stopped after 10 min. by the addition of 1 mg of PDE-SPA beads (Amersham Pharmacia Biotech, Inc., Piscataway, N.J.). The product AMP generated was quantified on a Wallac Microbeta® 96-well plate counter (EG&G Wallac Co., Gaithersburg, Md.). The signal in the absence of enzyme was defined as the background. 100% activity was defined as the signal detected in the presence of enzyme and DMSO with the background subtracted. Percentage of inhibition was calculated accordingly. IC50 value was approximated with a non-linear regression fit using the standard 4-parameter/multiple binding sites equation from a ten point titration.

TNF-α = test: Inhibition of LPS or Con A stimulated human whole blood: TNF-α; assay type: cell-based; details: read-out: Inhibition of LPS or Con A stimulate human whole blood, TNF-α
From the text: (§1) Rheumatoid arthritis (RA) is a systemic autoimmune disease resulting in progressive joint destruction and associated pain. Three major contributors to its pathology are joint inflammation, abnormal cellular and humoral responses, and synovial hyperplasia. T-lymphocytes (T-cells) and monocytes are the major cell types recovered from the synovial tissue of RA patients and experimental evidence confirms that pro-inflammatory cytokines produced by these cells are the major contributors to joint pathogenesis. The inventors have analyzed human whole blood for the production of various cytokines including Th1 and Th2 cytokines following stimulation with lipoplysaccharide (LPS) and Concanavalin A (ConA) in the presence or absence of PDE4 inhibitors. […] TNF-α sequestrants alone have shown clinical efficacy in RA. Thus, if sufficient levels of inhibition are achieved, PDE4 inhibitor-mediated TNF-α suppression would have efficacy in RA.
Whole blood provides a protein and cell-rich milieu appropriate for the study of biochemical efficacy of anti-inflammatory compounds such as PDE4-selective inhibitors. […] Upon stimulation with LPS, activated monocytes express and secrete TNF-α up to 8 hours and plasma levels remain stable for 24 hours. […]

IL-2 = test: Inhibition of LPS or Con A stimulated human whole blood: IL-2; assay type: cell-based; details: read-out: Inhibition of LPS or Con A stimulate human whole blood, IL-2
From the text: as §1
(§2) Inhibition of various Th1 and monocyte derived cytokines which may play a role in human rheumatoid arthritis.

IL-12 = test: Inhibition of LPS or Con A stimulated human whole blood: IL-12; assay type: cell-based; details: read-out: Inhibition of LPS or Con A stimulate human whole blood, IL-12
From the text: as §1, §2

IFNγ = test: Inhibition of LPS or Con A stimulated human whole blood: IFNγ; assay type: cell-based; details: read-out: Inhibition of LPS or Con A stimulate human whole blood, IFNγ
From the text: as §1, §2

GM-CSF = test: Inhibition of LPS or Con A stimulated human whole blood: GM-CSF; assay type: cell-based; details: read-out: Inhibition of LPS or Con A stimulate human whole blood, GM-CSF
From the text: as §1, §2

T1 sequence (P27815 248-886): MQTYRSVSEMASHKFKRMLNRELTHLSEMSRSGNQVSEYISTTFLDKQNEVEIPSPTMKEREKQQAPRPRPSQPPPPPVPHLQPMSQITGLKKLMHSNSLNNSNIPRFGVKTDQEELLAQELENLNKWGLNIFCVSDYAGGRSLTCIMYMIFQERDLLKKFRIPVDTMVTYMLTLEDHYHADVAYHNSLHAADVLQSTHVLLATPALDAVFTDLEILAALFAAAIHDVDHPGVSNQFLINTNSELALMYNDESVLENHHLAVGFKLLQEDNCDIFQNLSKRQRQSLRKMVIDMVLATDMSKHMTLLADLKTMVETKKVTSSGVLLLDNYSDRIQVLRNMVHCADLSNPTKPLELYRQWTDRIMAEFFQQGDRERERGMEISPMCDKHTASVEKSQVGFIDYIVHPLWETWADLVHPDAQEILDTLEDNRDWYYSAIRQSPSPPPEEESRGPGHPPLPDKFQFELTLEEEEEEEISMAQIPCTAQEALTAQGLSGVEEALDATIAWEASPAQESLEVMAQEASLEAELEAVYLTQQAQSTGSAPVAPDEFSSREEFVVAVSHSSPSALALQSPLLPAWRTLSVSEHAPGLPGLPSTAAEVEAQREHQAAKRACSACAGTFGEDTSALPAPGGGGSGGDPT

pIC50 ([2]; 100 nM cAMP, purified GST fusion protein of human recombinant PDE IVa (met-248), baculovirus/Sf-9, read-out: IC50): 9.12
Compound: CC(C)NC(=O)/C(=C/c1cccc(-c2cc(C(C)(C)C#N)cc3cccnc23)c1)c1ccc(S(C)(=O)=O)cc1 [Example 1]
cumulative score in collagen-induced arthritis [1]: low cumulative scores

Compound: O=C(Nc1c(Cl)cncc1Cl)c1ccc(OC(F)F)c(OCC2CC2)c1 [Roflumilast, N-(3,5-dichloropyrid-4-yl)-3-cyclopropylmethoxy-4-difluoromethoxybenzamide, reference compound]
cumulative score in collagen-induced arthritis [1]: low cumulative scores

Compound: Cc1c[n+]([O-])ccc1CC(c1ccc(C(O)(C(F)(F)F)C(F)(F)F)cc1)c1ccc(OC(F)F)c(OC(F)F)c1 (stereo not drawn) [Example 2]
pIC50 (TNF-α): 7.30 | pIC50 (IL-2): 6.52 | pIC50 (IL-12): 6.89 | pIC50 (IFNγ): 7.30 | pIC50 [2]: 8.88 | pIC50 (GM-CSF): 7.15
